Data from the supplement of paper PMC10307832.

Assays:
Experiment in all cases: relative viability (nuclei count vs DMSO), 5 days (fraction); higher = more cells survive
[1] = compound: CCN1CCC(CC1)N2C=C(N=N2)CNC3=CC4=C(C(=CN=C4C(=C3)Cl)C#N)NC5=CC(=C(C=C5)F)Cl [KIN001-266] + CS(=O)(=O)CCNCc1ccc(-c2ccc3ncnc(Nc4ccc(OCc5cccc(F)c5)c(Cl)c4)c3c2)o1 [Lapatinib] (partner 2 µM)
Outline: (§1)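 A single step with final 0.05% Triton X-100, 1% formaldehyde and 1 ug/ml Hoechst fixed the cells and stained nuclei 5 days after treatment. Lung cancer cell lines in 1536-well plates had been treated by pin tool the day after seeding with one drug alone or a fixed anchor-drug dose plus five library-drug doses (not always all listed) in √10 steps, and nuclei were counted on 4× images. Relative viability is the ratio of nuclei in treated wells to nuclei in vehicle wells, taken as the median of duplicate plates.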

[2] = compound: CCN1CCC(CC1)N2C=C(N=N2)CNC3=CC4=C(C(=CN=C4C(=C3)Cl)C#N)NC5=CC(=C(C=C5)F)Cl [KIN001-266] + C[C@@H](Oc1cc(-c2cnn(C3CCNCC3)c2)cnc1N)c1c(Cl)ccc(F)c1Cl [Crizotinib] (partner 1 µM)
Outline: as §1

[3] = compound: CCN1CCC(CC1)N2C=C(N=N2)CNC3=CC4=C(C(=CN=C4C(=C3)Cl)C#N)NC5=CC(=C(C=C5)F)Cl [KIN001-266] + Cc1cc(Nc2cc(N3CCN(C)CC3)nc(Sc3ccc(NC(=O)C4CC4)cc3)n2)n[nH]1 [Tozasertib] (partner 0.1 µM)
Outline: as §1

[4] = compound: CCN1CCC(CC1)N2C=C(N=N2)CNC3=CC4=C(C(=CN=C4C(=C3)Cl)C#N)NC5=CC(=C(C=C5)F)Cl [KIN001-266] + Nc1ncn([C@H]2C[C@H](O)[C@@H](CO)O2)c(=O)n1 [Decitabine] (partner 2 µM)
Outline: as §1

Row | Cell Line | relative viability ([1]; first compound 0.08 µM) | relative viability ([1]; first compound 0.253 µM) | relative viability ([1]; first compound 0.8 µM) | relative viability ([1]; first compound 2.53 µM) | relative viability ([1]; first compound 8 µM) | relative viability ([2]; first compound 0.08 µM) | relative viability ([2]; first compound 0.253 µM) | relative viability ([2]; first compound 0.8 µM) | relative viability ([2]; first compound 2.53 µM) | relative viability ([2]; first compound 8 µM) | relative viability ([3]; first compound 0.08 µM) | relative viability ([3]; first compound 0.253 µM) | relative viability ([3]; first compound 0.8 µM) | relative viability ([3]; first compound 2.53 µM) | relative viability ([3]; first compound 8 µM) | relative viability ([4]; first compound 0.08 µM) | relative viability ([4]; first compound 0.253 µM) | relative viability ([4]; first compound 0.8 µM) | relative viability ([4]; first compound 2.53 µM) | relative viability ([4]; first compound 8 µM)
1 | NCI-H1975 | 0.902 | 0.938 | 1.03 | 1.05 | 0.969 | 1.04 | 0.928 | 0.964 | 0.966 | 0.842 | 0.821 | 0.776 | 0.762 | 0.699 | 0.505 | 0.391 | 0.373 | 0.377 | 0.404 | 0.39
2 | NCI-H1993 | 0.896 | 0.775 | 0.841 | 0.793 | 0.746 | 0.954 | 0.858 | 0.982 | 0.815 | 0.776 | 0.596 | 0.563 | 0.574 | 0.567 | 0.553 | 0.66 | 0.563 | 0.415 | 0.579 | 0.607
3 | NCI-H2009 | 0.981 | 1.07 | 0.905 | 0.927 | 0.645 | 1.05 | 1.05 | 0.984 | 0.928 | 0.901 | 0.788 | 0.704 | 0.808 | 0.674 | 0.386 | 0.394 | 0.367 | 0.437 | 0.357 | 0.391
4 | NCI-H2023 | 0.774 | 0.971 | 1.09 | 0.855 | 0.34 | 0.732 | 0.603 | 0.576 | 0.648 | 0.459 | 0.39 | 0.341 | 0.419 | 0.292 | 0.184 | 0.21 | 0.217 | 0.217 | 0.216 | 0.289
5 | NCI-H2085 | 0.829 | 0.853 | 0.716 | 0.755 | 0.617 | 0.867 | 1.05 | 0.875 | 0.794 | 0.615 | 0.911 | 0.858 | 0.83 | 0.793 | 0.765 | 0.567 | 0.57 | 0.517 | 0.474 | 0.499
6 | NCI-H2087 | 1.03 | 1.05 | 1.06 | 0.987 | 0.875 | 0.699 | 0.81 | 0.604 | 0.786 | 0.532 | 0.206 | 0.246 | 0.23 | 0.175 | 0.155 | 0.29 | 0.288 | 0.257 | 0.299 | 0.258
7 | NCI-H2126 | 0.796 | 0.757 | 0.765 | 0.676 | 0.734 | 1.04 | 1.02 | 0.965 | 1.05 | 1.08 | 0.8 | 0.857 | 0.85 | 0.84 | 0.78 | 0.625 | 0.56 | 0.647 | 0.572 | 0.552
8 | NCI-H2170 | 0.29 | 0.268 | 0.266 | 0.247 | 0.255 | 1.17 | 1.19 | 1.22 | 1.11 | 1.18 | 0.802 | 0.715 | 0.623 | 0.785 | 0.709 | 0.47 | 0.437 | 0.457 | 0.436 | 0.414
9 | NCI-H2347 | 0.952 | 0.956 | 0.925 | 0.915 | 0.51 | 0.675 | 0.802 | 0.673 | 0.682 | 0.625 | 0.521 | 0.5 | 0.558 | 0.518 | 0.367 | 0.64 | 0.643 | 0.56 | 0.622 | 0.458
10 | NCI-H2405 | 1.08 | 1.23 | 1.09 | 1.16 | 0.936 | 0.854 | 0.89 | 0.811 | 0.852 | 0.565 | 0.763 | 0.792 | 0.746 | 0.684 | 0.455 | 0.772 | 0.78 | 0.783 | 0.694 | 0.627
11 | NCI-H3122 | 0.893 | 0.945 | 1.03 | 0.964 | 0.907 | 0.329 | 0.239 | 0.267 | 0.256 | 0.221 | 0.428 | 0.389 | 0.389 | 0.378 | 0.37 | 0.435 | 0.472 | 0.426 | 0.442 | 0.326
12 | PC-3 [JPC-3] | 0.451 | 0.447 | 0.422 | 0.414 | 0.499 | 0.986 | 0.911 | 0.872 | 0.952 | 0.896 | 0.844 | 0.916 | 0.774 | 0.815 | 0.788 | 0.786 | 0.87 | 0.823 | 0.824 | 0.737
13 | PC-14 | 0.307 | 0.368 | 0.27 | 0.287 | 0.312 | 0.92 | 0.972 | 0.817 | 0.852 | 0.571 | 0.577 | 0.655 |  | 0.589 | 0.432 | 0.214 | 0.253 | 0.2 | 0.265 | 0.229
14 | RERF-LC-KJ | 0.871 | 0.828 | 0.817 | 0.857 | 0.781 | 0.722 | 0.899 | 0.803 | 0.777 | 0.813 | 0.499 | 0.551 | 0.557 | 0.359 | 0.299 | 0.744 | 0.777 | 0.767 | 0.64 | 0.497
15 | SK-LU-1 | 0.932 | 0.862 | 0.817 | 0.64 | 0.613 | 1.13 | 0.997 | 0.963 | 0.763 | 0.557 | 0.403 | 0.375 | 0.322 | 0.307 | 0.286 | 0.718 | 0.623 | 0.615 | 0.552 | 0.478
16 | SK-MES-1 | 0.47 | 0.522 | 0.414 | 0.405 | 0.418 | 1.02 | 1.09 | 0.948 | 0.923 | 0.888 | 0.944 | 0.869 | 0.934 | 0.756 | 0.66 | 0.383 | 0.37 | 0.386 | 0.391 | 0.433
17 | SW 1573 | 1.09 | 1.13 | 1.11 | 0.88 | 1.04 | 0.695 | 0.846 | 0.81 | 0.663 | 0.68 | 0.219 | 0.186 | 0.162 | 0.184 | 0.224 | 0.504 | 0.447 | 0.699 | 0.427 | 0.429
18 | UMC-11 | 1.08 | 1.04 | 1.13 | 0.848 | 0.79 | 0.577 | 0.538 | 0.504 | 0.637 | 0.335 | 0.209 | 0.215 | 0.213 | 0.219 | 0.213 | 0.646 | 0.576 | 0.698 | 0.66 | 0.603
